For seven compounds, IC50 results are on record in patent publication US20240390350A1, “PHENYL CORE COMPOUNDS AS MGLU5 NEGATIVE ALLOSTERIC MODULATORS AND METHODS OF MAKING AND USING THE SAME” (Vanderbilt University, priority 2021, published 2024).

T1 sequence (P41594 21-1212): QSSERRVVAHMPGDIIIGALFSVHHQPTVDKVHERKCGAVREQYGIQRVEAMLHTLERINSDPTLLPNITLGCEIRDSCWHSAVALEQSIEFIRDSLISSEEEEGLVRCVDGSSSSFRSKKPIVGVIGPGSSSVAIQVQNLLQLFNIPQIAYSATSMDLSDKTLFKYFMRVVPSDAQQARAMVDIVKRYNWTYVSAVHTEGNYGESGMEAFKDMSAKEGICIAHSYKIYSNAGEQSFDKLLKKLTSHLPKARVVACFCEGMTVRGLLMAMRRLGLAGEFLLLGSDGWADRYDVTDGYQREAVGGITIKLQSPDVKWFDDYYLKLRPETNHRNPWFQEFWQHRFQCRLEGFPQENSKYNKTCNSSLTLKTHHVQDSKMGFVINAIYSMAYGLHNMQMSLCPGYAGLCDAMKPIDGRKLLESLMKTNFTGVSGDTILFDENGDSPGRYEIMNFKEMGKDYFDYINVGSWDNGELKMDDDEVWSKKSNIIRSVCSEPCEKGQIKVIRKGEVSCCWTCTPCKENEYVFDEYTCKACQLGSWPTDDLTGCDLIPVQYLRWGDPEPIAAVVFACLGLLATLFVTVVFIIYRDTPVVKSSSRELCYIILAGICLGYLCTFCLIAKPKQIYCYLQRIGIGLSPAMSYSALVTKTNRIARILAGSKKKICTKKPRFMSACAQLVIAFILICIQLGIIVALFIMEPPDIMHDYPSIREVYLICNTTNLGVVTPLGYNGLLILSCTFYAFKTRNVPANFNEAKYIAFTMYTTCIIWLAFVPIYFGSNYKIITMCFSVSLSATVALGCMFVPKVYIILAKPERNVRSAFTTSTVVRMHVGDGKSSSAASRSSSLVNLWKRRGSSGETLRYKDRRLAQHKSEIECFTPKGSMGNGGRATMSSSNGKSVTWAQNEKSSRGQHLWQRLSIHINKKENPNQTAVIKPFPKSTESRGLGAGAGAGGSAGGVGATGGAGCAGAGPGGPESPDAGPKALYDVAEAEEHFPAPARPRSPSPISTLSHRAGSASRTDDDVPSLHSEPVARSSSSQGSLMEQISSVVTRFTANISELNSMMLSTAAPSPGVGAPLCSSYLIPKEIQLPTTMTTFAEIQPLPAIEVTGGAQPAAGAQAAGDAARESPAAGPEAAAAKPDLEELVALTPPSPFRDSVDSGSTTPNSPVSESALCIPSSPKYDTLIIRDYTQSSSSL

The assay addresses T1, human mGlu5 (Homo sapiens, UniProt P41594).
T1 construct: expressed in transfected cells; host or cells: HEK 293A
Kind of assay: mGlu5 negative allosteric modulator Ca2+ flux assay in HEK 293A cells (Table 1). In kind it is cell-based. As to conditions: HEK 293A cells stably expressing mGlu5; Ca2+ flux (Fluo-4); decrease of glutamate EC80 response; read-out: hmGlu5 NAM IC50.
Regarding `Cc1cccc(NC(=O)c2cc(F)c(F)c(-c3cnc(C)s3)c2)n1` [Compound 45, 3,4-difluoro-N-(6-methylpyridin-2-yl)-5-(2-methylthiazol-5-yl)benzamide], the IC50 – broadly, the concentration that gives 50% inhibition – was determined as 1230 nM. Consider `Cc1cccc(NC(=O)c2cc(F)c(F)c(-c3cncc(F)c3)c2)n1` [Compound 46, 3,4-difluoro-5-(5-fluoropyridin-3-yl)-N-(6-methylpyridin-2-yl)benzamide], for which the IC50 turned out to be 94 nM.

As to `Cc1cccc(NC(=O)c2cc(-c3cnccc3C)c(F)cc2F)n1` [Compound 47, 2,4-difluoro-N-(6-methylpyridin-2-yl)-5-(4-methylpyridin-3-yl)benzamide], the IC50 came to 105 nM. In the case of `Cc1ccncc1-c1cc(C(=O)Nc2cccc(Cl)n2)c(F)cc1F` [Compound 48, N-(6-chloropyridin-2-yl)-2,4-difluoro-5-(4-methylpyridin-3-yl)benzamide] it was 192 nM; in that of `Cc1ccncc1-c1cc(C(=O)Nc2ccccn2)cc(F)c1F` [Compound 49, 3,4-difluoro-5-(4-methylpyridin-3-yl)-N-(pyridin-2-yl)benzamide], 412 nM.

In the case of `Cc1ccncc1-c1cc(C(=O)Nc2cccc(Cl)n2)cc(F)c1F` [Compound 50, N-(6-chloropyridin-2-yl)-3,4-difluoro-5-(4-methylpyridin-3-yl)benzamide], the 50% inhibitory concentration (IC50) was 79 nM. Take `Cc1csc(NC(=O)c2cc(F)c(F)c(-c3cnccc3C)c2)n1` [Compound 51, 3,4-difluoro-5-(4-methylpyridin-3-yl)-N-(4-methylthiazol-2-yl)benzamide]: the IC50 was determined as 437 nM.
